Source: patent US11447466B2, “Substituted indole compounds useful as inhibitors of TLR7/8/9” (BRISTOL-MYERS SQUIBB COMPANY, priority 2017, dated 2022)

How the values were obtained:
Type in all cases: cell-based
human TLR8 = molecular target: T1, human TLR8 (Homo sapiens, UniProt Q9NR97); test: TLR8 inhibition reporter assay (HEK-Blue SEAP reporter, R848 stimulation); settings: HEK-Blue cells overexpressing human TLR8, SEAP reporter, R848 15.9 μM, 22 hour incubation
T1 construct: host or cells: HEK-Blue cells
T1 sequence (Q9NR97 27-1041): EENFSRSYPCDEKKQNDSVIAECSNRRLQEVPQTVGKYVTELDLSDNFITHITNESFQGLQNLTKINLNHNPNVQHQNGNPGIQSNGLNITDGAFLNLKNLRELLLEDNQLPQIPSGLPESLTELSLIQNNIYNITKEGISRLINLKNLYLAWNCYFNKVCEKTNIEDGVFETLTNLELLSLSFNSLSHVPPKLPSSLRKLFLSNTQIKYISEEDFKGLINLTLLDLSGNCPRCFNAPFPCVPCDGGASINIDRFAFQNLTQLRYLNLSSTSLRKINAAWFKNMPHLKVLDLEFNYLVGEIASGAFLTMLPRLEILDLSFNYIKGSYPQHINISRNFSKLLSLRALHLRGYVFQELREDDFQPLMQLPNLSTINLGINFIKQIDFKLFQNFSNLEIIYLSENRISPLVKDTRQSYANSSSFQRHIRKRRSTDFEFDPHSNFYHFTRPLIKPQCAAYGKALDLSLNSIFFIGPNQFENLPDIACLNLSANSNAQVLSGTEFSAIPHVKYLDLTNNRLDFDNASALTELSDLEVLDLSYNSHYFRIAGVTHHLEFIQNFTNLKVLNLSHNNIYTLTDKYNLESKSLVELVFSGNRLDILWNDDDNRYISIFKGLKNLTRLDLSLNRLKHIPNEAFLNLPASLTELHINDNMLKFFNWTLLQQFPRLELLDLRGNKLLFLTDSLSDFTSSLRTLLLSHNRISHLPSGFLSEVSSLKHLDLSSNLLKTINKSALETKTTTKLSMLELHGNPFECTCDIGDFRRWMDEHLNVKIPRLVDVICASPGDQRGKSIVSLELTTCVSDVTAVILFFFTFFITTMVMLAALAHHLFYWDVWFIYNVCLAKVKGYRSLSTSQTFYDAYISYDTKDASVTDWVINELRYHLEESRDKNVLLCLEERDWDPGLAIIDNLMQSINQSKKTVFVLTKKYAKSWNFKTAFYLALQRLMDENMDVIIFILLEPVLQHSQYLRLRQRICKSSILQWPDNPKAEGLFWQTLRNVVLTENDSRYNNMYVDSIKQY
In short: (§1)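 Dose–response from 0.05 nM to 50 μM was run in HEK-Blue human TLR7, TLR8 and TLR9 reporter cells. After 30 min at room temperature with compound, ligand was added (TLR7 gardiquimod 7.5 μM; TLR8 R848 15.9 μM; TLR9 ODN2006 5 nM) and SEAP measured next day, at 22 h.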

human TLR9 = molecular target: T2, human TLR9 (Homo sapiens, UniProt Q9NR96); test: TLR9 inhibition reporter assay (HEK-Blue SEAP reporter, ODN2006 stimulation); settings: HEK-Blue cells overexpressing human TLR9, SEAP reporter, ODN2006 5 nM, 22 hour incubation
T2 construct: host or cells: HEK-Blue cells
T2 sequence (Q9NR96 26-1032): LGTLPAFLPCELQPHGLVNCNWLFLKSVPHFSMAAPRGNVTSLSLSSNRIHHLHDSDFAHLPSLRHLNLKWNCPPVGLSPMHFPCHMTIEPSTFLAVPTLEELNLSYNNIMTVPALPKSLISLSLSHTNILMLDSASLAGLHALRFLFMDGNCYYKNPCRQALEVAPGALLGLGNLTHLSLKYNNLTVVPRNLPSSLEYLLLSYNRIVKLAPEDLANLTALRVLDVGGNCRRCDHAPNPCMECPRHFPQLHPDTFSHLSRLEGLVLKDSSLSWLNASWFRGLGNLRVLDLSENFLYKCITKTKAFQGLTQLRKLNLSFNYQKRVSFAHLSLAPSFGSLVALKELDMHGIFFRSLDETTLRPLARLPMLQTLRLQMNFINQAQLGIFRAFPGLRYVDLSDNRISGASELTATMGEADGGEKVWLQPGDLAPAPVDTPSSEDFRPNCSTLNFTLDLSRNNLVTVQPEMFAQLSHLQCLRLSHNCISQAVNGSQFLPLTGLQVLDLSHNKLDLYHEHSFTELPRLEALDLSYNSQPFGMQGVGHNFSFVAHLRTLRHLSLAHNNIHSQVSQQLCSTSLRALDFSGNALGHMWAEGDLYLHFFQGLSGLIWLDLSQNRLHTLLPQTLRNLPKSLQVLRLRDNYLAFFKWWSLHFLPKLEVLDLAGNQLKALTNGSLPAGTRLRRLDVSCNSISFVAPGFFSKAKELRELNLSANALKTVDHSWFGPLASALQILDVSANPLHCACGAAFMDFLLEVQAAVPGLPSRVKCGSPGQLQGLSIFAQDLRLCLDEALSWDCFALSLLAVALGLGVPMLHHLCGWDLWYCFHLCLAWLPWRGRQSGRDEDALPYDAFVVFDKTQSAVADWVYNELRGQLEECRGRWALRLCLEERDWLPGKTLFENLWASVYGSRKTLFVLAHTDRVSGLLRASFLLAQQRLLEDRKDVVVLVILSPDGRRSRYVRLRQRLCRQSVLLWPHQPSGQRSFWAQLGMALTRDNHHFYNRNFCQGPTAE
In short: as §1

human TLR7 = molecular target: T3, human TLR7 (Homo sapiens, UniProt Q9NYK1); test: TLR7 inhibition reporter assay (HEK-Blue SEAP reporter, gardiquimod stimulation); settings: HEK-Blue cells overexpressing human TLR7, SEAP reporter, gardiquimod 7.5 μM, 22 hour incubation
T3 construct: host or cells: HEK-Blue cells
T3 sequence (Q9NYK1 27-1049): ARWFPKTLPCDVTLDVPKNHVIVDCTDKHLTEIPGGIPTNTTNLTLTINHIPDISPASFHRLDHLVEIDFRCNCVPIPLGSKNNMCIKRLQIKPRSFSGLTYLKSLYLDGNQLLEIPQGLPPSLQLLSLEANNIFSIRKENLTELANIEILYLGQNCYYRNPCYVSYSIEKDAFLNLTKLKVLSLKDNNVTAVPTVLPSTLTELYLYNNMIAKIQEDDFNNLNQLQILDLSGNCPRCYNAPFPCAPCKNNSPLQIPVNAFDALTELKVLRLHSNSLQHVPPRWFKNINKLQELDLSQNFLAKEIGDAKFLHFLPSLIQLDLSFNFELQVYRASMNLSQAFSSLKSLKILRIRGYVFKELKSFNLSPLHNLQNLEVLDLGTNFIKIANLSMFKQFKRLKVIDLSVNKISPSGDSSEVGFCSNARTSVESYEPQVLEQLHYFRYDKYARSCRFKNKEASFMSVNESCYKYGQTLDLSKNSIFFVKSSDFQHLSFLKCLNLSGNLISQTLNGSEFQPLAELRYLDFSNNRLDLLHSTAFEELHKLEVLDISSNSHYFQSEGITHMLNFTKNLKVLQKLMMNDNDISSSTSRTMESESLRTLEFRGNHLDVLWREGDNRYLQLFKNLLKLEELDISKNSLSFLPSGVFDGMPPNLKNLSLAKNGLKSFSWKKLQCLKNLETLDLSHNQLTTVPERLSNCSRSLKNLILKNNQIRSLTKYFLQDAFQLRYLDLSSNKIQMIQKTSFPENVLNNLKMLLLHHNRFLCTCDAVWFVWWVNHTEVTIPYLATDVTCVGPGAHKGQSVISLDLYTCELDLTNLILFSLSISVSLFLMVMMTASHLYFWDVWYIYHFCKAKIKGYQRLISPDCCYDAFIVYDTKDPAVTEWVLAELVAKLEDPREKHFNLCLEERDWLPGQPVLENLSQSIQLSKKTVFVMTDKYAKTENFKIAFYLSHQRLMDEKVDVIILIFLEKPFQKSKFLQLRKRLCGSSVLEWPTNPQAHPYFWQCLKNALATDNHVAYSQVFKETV
In short: as §1

Row | IC50 (human TLR8) | IC50 (human TLR9) | IC50 (human TLR7) | Structure (SMILES)
1 | 70.5 nM | 764 nM | 12.6 nM | CC(C)c1cc(-c2[nH]c3ccc(C4CCNCC4)cc3c2C(C)C)cn(C)c1=O [Example 66, 3-isopropyl-5-(3-isopropyl-5-(piperidin-4-yl)-1H-indol-2-yl)-1-methylpyridin-2(1H)-one]
2 | 80.2 nM | 4760 nM | 52.2 nM | COc1c(C)c(-c2[nH]c3ccc(C4CCN(C(=O)CN(C)C)CC4)cc3c2C(C)C)cn(C)c1=O [Example 276, 5-(5-(1-(dimethylglycyl)piperidin-4-yl)-3-isopropyl-1H-indol-2-yl)-3-methoxy-1,4-dimethylpyridin-2(1H)-one]
3 | 14.2 nM | 1170 nM | 18.3 nM | Cc1cc(-c2cc(-c3[nH]c4ccc(C5CCN(C(C)C)CC5)cc4c3C(C)C)cn(C)c2=O)cnc1F [Example 343, 6′-fluoro-5-(3-isopropyl-5-(1-isopropylpiperidin-4-yl)-1H-indol-2-yl)-1,5′-dimethyl-[3,3′-bipyridin]-2(1H)-one]
4 | 9.1 nM | 1770 nM | 1.4 nM | Cc1c(-c2[nH]c3ccc(C4CCN(C(CCO)CCO)CC4)cc3c2C(C)C)cn(C)c(=O)c1Cl [Example 243, 3-chloro-5-(5-(1-(1,5-dihydroxypentan-3-yl)piperidin-4-yl)-3-isopropyl-1H-indol-2-yl)-1,4-dimethylpyridin-2(1H)-one]
5 | 11.2 nM | 1420 nM | 12.3 nM | Cc1cc(-c2[nH]c3ccc(C4CCN(C(=O)[C@H]5NCC[C@@H]5O)CC4)cc3c2C(C)C)cn(C)c1=O [Example 291, 5-(5-(1-((2S,3S)-3-hydroxypyrrolidine-2-carbonyl)piperidin-4-yl)-3-isopropyl-1H-indol-2-yl)-1,3-dimethylpyridin-2(1H)-one]
6 | 142 nM | 1520 nM | 185 nM | CC(C)c1c(-c2cc(/C=C/C3CC3)c(=O)n(C)c2)[nH]c2ccc(C3CCNCC3)cc12 [Example 52, (E)-3-(2-cyclopropylvinyl)-5-(3-isopropyl-5-(piperidin-4-yl)-1H-indol-2-yl)-1-methylpyridin-2(1H)-one]
7 | 8 nM | 23800 nM | 7 nM | Cc1cc(-c2[nH]c3ccc(C4CCN([C@@H]5CCNC5=O)CC4)cc3c2C(C)C)cn(C)c1=O [Example 123, (R)-5-(3-isopropyl-5-(1-(2-oxopyrrolidin-3-yl)piperidin-4-yl)-1H-indol-2-yl)-1,3-dimethylpyridin-2(1H)-one]
8 | 3 nM | 4310 nM | 1.1 nM | Cc1cc(-c2[nH]c3ccc(C4CCN(C(=O)C(C)(C)N)CC4)cc3c2C(C)C)cn(C)c1=O [Example 296, 5-(5-(1-(2-amino-2-methylpropanoyl)piperidin-4-yl)-3-isopropyl-1H-indol-2-yl)-1,3-dimethylpyridin-2(1H)-one]
9 | 14.7 nM | 6650 nM | 18.3 nM | CCn1nc(-c2[nH]c3ccc(C4CCNCC4)cc3c2C(C)C)cc(C)c1=O [Example 18, 2-ethyl-6-(3-isopropyl-5-(piperidin-4-yl)-1H-indol-2-yl)-4-methylpyridazin-3(2H)-one]
10 | 46.8 nM | 6250 nM | 512 nM | Cc1c(-c2[nH]c3ccc(C4CCN(C(=O)CN(C)C)CC4)cc3c2C(C)C)nn(C)c(=O)c1C [Example 283, 6-(5-(1-(dimethylglycyl)piperidin-4-yl)-3-isopropyl-1H-indol-2-yl)-2,4,5-trimethylpyridazin-3(2H)-one]
11 | 7 nM | 3110 nM | 31.1 nM | CCn1cc(-c2[nH]c3ccc(C4CCN(C5CCOCC5)CC4)cc3c2C(C)C)c(C)c(C)c1=O [Example 208, 1-ethyl-5-(3-isopropyl-5-(1-(tetrahydro-2H-pyran-4-yl)piperidin-4-yl)-1H-indol-2-yl)-3,4-dimethylpyridin-2(1H)-one]
12 | 16.5 nM | 2910 nM | 15.6 nM | CCn1cc(-c2[nH]c3ccc(C4CCN(C(C)C)CC4)cc3c2C(C)C)c(C)c(C)c1=O [Example 213, 1-ethyl-5-(3-isopropyl-5-(1-isopropylpiperidin-4-yl)-1H-indol-2-yl)-3,4-dimethylpyridin-2(1H)-one]
13 | 9.7 nM | 5310 nM | 13 nM | COCCn1cc(-c2[nH]c3ccc(C4CCN(CC(C)C)CC4)cc3c2C(C)C)cc(C)c1=O [Example 109, 5-(5-(1-isobutylpiperidin-4-yl)-3-isopropyl-1H-indol-2-yl)-1-(2-methoxyethyl)-3-methylpyridin-2(1H)-one]
14 | 5.5 nM | 1250 nM | 6.2 nM | Cc1c(-c2[nH]c3ccc(C4CCN(CC(C)C)CC4)cc3c2C(C)C)cn(C)c(=O)c1Cl [Example 106, 3-chloro-5-(5-(1-isobutylpiperidin-4-yl)-3-isopropyl-1H-indol-2-yl)-1,4-dimethylpyridin-2(1H)-one]
